Reference: ChEMBL document CHEMBL5532679, “Discovery and Characterization of RGH-122, a Potent, Selective, and Orally Bioavailable V1a Receptor Antagonist” (J Med Chem, 2024)

System: not listed separately
Assay: Apparent permeability of compound across apical to basal side in vinblastine treated human Caco-2 cells at 1 to 10 uM incubated for 15 to 60 mins by HPLC analysis
Conditions: not given

Which Papp A→B at 10 µM does the source give for `OC1Cc2cc(Cl)ccc2-n2c(nnc2[C@H]2CC[C@H](Oc3ccccn3)CC2)C1` (mixture of isomers) here?
The Papp A→B at 10 µM was 20 ×10⁻⁶ cm/s.

With `CN1Cc2cc(Cl)ccc2-n2c(nnc2[C@H]2CC[C@H](Oc3ccccn3)CC2)C1` [BALOVAPTAN] as the molecule, how does the Papp A→B at 10 µM read?
Its Papp A→B at 10 µM is 51 ×10⁻⁶ cm/s.

System: not listed separately
Assay: Efflux ratio of apparent permeability across basolateral to apical side over apical to basolateral side in vinblastine treated human Caco-2 cells at 1 to 10 uM incubated for 15 to 60 hrs by HPLC analysis
Conditions: not given

With `Clc1cnc2n1CCCc1nnc([C@H]3CC[C@H](Oc4ccccn4)CC3)n1-2` as the molecule, how does the efflux ratio at 10 µM read?
The efflux ratio at 10 µM was 0.8.

Which efflux ratio at 10 µM does the source give for `OC1Cc2cc(Cl)ccc2-n2c(nnc2[C@H]2CC[C@H](Oc3ccccn3)CC2)C1` (mixture of isomers) here?
Its efflux ratio at 10 µM is 5.9.

System: not listed separately
Assay: Half life in Wistar rat plasma at 3 mg/kg, iv by HPLC-MS/MS analysis
Conditions: not given

With `OC1Cc2cc(Cl)ccc2-n2c(nnc2[C@H]2CC[C@H](Oc3ccccn3)CC2)C1` (mixture of isomers) as the molecule, how does the half-life read?
The half-life was 1 h.

System: not listed separately
Assay: Half life in Wistar rat plasma at 3 mg/kg, po by HPLC-MS/MS analysis
Conditions: not given

With `OC1Cc2cc(Cl)ccc2-n2c(nnc2[C@H]2CC[C@H](Oc3ccccn3)CC2)C1` (mixture of isomers) as the molecule, how does the half-life read?
The half-life was 1.5 h.

System: not listed separately
Assay: Half life in Wistar rat brain at 3 mg/kg, po by HPLC-MS/MS analysis
Conditions: not given

For `OC1Cc2cc(Cl)ccc2-n2c(nnc2[C@H]2CC[C@H](Oc3ccccn3)CC2)C1` (mixture of isomers), which half-life is on record?
The half-life was 1.43 h.

Biological target: T1, Cytochrome P450 1A2 (Homo sapiens, UniProt P05177)
T1 sequence (P05177 whole entry): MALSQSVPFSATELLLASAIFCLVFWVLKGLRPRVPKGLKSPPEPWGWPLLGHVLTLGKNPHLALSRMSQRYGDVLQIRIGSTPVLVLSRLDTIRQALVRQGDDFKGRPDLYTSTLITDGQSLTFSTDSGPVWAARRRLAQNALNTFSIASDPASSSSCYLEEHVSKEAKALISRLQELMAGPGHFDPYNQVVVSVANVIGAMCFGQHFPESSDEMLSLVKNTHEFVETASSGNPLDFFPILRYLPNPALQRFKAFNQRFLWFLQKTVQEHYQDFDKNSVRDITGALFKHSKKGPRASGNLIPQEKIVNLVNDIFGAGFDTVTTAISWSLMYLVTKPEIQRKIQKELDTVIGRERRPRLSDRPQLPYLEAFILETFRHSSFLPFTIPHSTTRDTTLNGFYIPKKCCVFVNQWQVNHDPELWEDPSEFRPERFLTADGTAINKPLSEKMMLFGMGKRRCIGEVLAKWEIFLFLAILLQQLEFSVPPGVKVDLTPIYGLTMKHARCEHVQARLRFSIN
Assay: Inhibition of CYP1A2 (unknown origin)
Assay type: ADME
Conditions: not given

Which IC50 does the source give for `Clc1ccc2c(c1)CC1(Cc3nnc([C@H]4CC[C@H](Oc5ccccn5)CC4)n3-2)OCCO1` here?
The IC50 was over 10 µM.

Biological target: T2, Cytochrome P450 2B6 (Homo sapiens, UniProt P20813)
T2 sequence (P20813 whole entry): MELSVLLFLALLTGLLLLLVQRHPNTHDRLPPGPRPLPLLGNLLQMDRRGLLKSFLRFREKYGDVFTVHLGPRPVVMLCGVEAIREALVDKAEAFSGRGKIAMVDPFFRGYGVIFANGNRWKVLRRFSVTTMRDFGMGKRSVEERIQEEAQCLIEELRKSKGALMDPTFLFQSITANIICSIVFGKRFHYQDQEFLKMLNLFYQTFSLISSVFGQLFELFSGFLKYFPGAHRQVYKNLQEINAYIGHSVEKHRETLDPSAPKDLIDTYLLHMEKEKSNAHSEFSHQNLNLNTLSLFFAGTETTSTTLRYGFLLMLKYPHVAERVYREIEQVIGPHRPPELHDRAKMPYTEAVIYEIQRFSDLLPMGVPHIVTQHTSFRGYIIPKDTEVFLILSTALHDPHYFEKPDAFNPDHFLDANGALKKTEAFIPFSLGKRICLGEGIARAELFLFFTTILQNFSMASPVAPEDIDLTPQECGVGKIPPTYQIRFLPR
Assay: Inhibition of CYP2B6 (unknown origin)
Assay type: ADME
Conditions: not given

For `Clc1ccc2c(c1)CC1(Cc3nnc([C@H]4CC[C@H](Oc5ccccn5)CC4)n3-2)OCCO1`, which IC50 is on record?
The IC50 was over 10 µM.

Biological target: T3, Cytochrome P450 2C8 (Homo sapiens, UniProt P10632)
T3 sequence (P10632 whole entry): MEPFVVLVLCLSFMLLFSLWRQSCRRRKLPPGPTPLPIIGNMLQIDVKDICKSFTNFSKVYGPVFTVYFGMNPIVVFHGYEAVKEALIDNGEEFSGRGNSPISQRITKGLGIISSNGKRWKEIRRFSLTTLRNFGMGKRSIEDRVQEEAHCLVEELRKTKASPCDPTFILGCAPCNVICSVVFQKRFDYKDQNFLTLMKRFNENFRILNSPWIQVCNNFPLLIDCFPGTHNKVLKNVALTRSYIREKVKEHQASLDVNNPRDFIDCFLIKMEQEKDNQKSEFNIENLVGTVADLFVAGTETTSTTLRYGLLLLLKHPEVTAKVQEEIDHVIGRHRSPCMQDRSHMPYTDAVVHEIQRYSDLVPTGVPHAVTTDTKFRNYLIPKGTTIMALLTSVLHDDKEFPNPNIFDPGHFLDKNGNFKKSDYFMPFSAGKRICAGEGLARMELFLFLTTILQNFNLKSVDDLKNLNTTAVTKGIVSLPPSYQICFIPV
Assay: Inhibition of CYP2C8 (unknown origin)
Assay type: ADME
Conditions: not given

For `Clc1ccc2c(c1)CC1(Cc3nnc([C@H]4CC[C@H](Oc5ccccn5)CC4)n3-2)OCCO1`, which IC50 is on record?
The IC50 was over 10 µM.

Biological target: Cytochrome P450 2C9 (Homo sapiens, UniProt P11712)
Assay: Inhibition of CYP2C9 (unknown origin)
Assay type: ADME
Conditions: not given

Cytochrome P450 2C9, sequence (P11712 whole entry): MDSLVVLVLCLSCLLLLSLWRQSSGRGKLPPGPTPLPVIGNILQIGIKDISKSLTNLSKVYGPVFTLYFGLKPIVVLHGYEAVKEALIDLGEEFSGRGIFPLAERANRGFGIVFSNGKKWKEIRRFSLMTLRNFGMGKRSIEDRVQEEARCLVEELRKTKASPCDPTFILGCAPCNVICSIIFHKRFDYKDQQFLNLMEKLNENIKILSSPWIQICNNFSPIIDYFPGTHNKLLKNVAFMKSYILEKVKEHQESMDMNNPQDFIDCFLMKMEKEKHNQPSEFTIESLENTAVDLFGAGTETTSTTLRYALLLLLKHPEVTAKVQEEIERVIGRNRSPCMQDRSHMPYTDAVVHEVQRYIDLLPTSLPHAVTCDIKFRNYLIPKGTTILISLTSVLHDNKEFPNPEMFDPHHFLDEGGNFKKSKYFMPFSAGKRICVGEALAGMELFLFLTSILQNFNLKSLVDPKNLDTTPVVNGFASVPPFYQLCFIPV

Which IC50 does the source give for `Clc1ccc2c(c1)CC1(Cc3nnc([C@H]4CC[C@H](Oc5ccccn5)CC4)n3-2)OCCO1` here?
The IC50 was over 10 µM.

Biological target: Cytochrome P450 2D6 (Homo sapiens, UniProt P10635)
Assay: Inhibition of CYP2D6 (unknown origin)
Assay type: ADME
Conditions: not given

Cytochrome P450 2D6, sequence (P10635 whole entry): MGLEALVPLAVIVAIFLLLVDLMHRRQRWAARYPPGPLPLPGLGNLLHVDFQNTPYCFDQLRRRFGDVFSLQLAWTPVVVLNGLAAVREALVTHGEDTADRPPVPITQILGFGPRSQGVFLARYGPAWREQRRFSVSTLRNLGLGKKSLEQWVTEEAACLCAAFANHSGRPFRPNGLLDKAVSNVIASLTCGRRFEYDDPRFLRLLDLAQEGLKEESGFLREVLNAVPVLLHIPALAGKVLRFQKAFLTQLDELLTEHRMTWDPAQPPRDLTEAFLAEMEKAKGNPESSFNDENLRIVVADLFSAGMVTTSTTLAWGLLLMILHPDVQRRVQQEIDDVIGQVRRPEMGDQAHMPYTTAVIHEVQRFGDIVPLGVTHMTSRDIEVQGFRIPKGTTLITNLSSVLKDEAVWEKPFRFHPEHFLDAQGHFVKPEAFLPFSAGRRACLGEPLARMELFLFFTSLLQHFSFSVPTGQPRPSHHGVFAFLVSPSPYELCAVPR

For `Clc1ccc2c(c1)CC1(Cc3nnc([C@H]4CC[C@H](Oc5ccccn5)CC4)n3-2)OCCO1`, which IC50 is on record?
The IC50 was over 10 µM.

Biological target: Cytochrome P450 3A4 (Homo sapiens, UniProt P08684)
Assay: Inhibition of CYP3A4 (unknown origin)
Assay type: ADME
Conditions: not given

Cytochrome P450 3A4, sequence (P08684 whole entry): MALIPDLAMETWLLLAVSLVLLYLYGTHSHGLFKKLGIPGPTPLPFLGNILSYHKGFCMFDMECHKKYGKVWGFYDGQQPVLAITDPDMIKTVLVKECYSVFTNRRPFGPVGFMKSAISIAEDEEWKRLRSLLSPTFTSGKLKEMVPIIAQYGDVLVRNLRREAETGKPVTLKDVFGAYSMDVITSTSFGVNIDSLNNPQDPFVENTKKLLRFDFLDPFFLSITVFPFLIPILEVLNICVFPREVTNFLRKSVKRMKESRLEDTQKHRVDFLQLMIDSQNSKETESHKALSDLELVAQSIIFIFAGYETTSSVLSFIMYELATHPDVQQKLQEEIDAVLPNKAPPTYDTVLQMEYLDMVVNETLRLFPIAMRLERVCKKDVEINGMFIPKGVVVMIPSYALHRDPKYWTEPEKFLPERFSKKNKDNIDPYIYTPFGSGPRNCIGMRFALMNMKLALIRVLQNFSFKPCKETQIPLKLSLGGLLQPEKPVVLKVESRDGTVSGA

Which IC50 does the source give for `Clc1ccc2c(c1)CC1(Cc3nnc([C@H]4CC[C@H](Oc5ccccn5)CC4)n3-2)OCCO1` here?
Its IC50 is over 10 µM.

Biological target: Vasopressin V1a receptor (Homo sapiens, UniProt P37288)
Assay: not given
Conditions: not given

Vasopressin V1a receptor, sequence (P37288 whole entry): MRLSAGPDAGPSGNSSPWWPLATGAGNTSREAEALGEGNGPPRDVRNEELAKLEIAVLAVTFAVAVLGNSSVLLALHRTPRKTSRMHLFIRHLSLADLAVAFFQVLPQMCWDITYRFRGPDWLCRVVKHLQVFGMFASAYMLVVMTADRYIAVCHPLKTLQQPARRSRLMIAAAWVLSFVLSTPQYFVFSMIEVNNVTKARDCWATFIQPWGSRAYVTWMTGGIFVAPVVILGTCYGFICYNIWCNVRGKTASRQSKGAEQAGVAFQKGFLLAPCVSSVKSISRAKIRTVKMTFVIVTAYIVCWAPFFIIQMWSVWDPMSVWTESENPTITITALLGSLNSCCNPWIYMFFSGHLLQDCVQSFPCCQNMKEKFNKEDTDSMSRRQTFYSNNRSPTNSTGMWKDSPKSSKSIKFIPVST

For `Clc1cnc2n1CCCc1nnc([C@H]3CC[C@H](Oc4ccccn4)CC3)n1-2`, which IC50 is on record?
Its IC50 is 0.178 µM.

Biological target: Voltage-gated inwardly rectifying potassium channel KCNH2 (Homo sapiens, UniProt Q12809)
Assay: not given
Conditions: not given

Voltage-gated inwardly rectifying potassium channel KCNH2, sequence (Q12809 whole entry): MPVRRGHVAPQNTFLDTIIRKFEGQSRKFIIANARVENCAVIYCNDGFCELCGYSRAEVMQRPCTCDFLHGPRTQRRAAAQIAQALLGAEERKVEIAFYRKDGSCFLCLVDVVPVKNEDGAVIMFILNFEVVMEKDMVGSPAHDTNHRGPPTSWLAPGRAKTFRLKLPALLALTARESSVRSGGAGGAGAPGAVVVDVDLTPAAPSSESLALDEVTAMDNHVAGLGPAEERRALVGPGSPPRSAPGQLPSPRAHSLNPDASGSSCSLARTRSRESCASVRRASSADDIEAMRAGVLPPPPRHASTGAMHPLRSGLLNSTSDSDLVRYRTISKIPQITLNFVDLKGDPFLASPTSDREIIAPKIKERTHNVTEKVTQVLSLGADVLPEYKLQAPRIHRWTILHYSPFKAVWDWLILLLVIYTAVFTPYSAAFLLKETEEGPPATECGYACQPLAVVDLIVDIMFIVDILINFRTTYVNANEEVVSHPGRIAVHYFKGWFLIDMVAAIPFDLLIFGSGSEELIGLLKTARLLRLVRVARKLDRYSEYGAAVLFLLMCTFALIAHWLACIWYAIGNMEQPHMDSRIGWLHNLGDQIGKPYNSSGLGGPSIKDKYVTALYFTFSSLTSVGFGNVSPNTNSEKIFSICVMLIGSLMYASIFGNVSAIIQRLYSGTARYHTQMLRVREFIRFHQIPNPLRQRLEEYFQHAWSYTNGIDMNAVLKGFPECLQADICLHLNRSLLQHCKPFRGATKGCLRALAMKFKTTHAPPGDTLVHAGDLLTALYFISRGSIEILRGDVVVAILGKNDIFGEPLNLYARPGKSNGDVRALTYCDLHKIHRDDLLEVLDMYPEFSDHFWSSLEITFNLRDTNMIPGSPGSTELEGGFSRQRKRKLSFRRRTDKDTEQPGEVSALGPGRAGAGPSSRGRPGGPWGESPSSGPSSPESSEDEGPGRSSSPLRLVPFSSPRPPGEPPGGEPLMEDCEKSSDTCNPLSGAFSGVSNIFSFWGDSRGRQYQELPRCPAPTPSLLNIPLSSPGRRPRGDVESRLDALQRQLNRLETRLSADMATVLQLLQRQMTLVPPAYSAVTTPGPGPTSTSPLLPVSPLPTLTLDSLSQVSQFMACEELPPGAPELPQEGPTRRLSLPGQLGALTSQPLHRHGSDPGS

With `OC1Cc2cc(Cl)ccc2-n2c(nnc2[C@H]2CC[C@H](Oc3ccccn3)CC2)C1` (mixture of isomers) as the molecule, how does the IC50 read?
Its IC50 is over 30 µM.

With `CN1Cc2cc(Cl)ccc2-n2c(nnc2[C@H]2CC[C@H](Oc3ccccn3)CC2)C1` [BALOVAPTAN] as the molecule, how does the IC50 read?
The IC50 was 21 µM.

System: not given
Assay: not given
Conditions: human, microsomes, 1 µM

For `Clc1cnc2n1CCCc1nnc([C@H]3CC[C@H](Oc4ccccn4)CC3)n1-2`, which CLH is on record?
Its CLH is 41 µL/min/mg.

Which CLH does the source give for `OC1Cc2cc(Cl)ccc2-n2c(nnc2[C@H]2CC[C@H](Oc3ccccn3)CC2)C1` (mixture of isomers) here?
Its CLH is 0.58 mL/day/kg.

With `CN1Cc2cc(Cl)ccc2-n2c(nnc2[C@H]2CC[C@H](Oc3ccccn3)CC2)C1` [BALOVAPTAN] as the molecule, how does the CLH read?
The CLH was 51 µL/min/mg.

System: not listed separately
Assay: in vivo
Conditions: Wistar, rat, iv, 3 mg/kg

With `OC1Cc2cc(Cl)ccc2-n2c(nnc2[C@H]2CC[C@H](Oc3ccccn3)CC2)C1` (mixture of isomers) as the molecule, how does the AUC(0-t) read?
The AUC(0-t) was 0.876 µM·h.

System: not listed separately
Assay: in vivo
Conditions: Wistar, rat, po, 3 mg/kg

For `OC1Cc2cc(Cl)ccc2-n2c(nnc2[C@H]2CC[C@H](Oc3ccccn3)CC2)C1` (mixture of isomers), which AUC(0-t) is on record?
The AUC(0-t) was 0.897 µM·h.

System: not listed separately
Assay: in vivo
Conditions: Wistar, rat, po, 3 mg/kg
Remark: another data set of the same source

For `OC1Cc2cc(Cl)ccc2-n2c(nnc2[C@H]2CC[C@H](Oc3ccccn3)CC2)C1` (mixture of isomers), which AUC(0-t) is on record?
Its AUC(0-t) is 0.481 µM·h.

System: not listed separately
Assay: in vivo
Conditions: Wistar, rat, plasma, iv, 3 mg/kg

For `OC1Cc2cc(Cl)ccc2-n2c(nnc2[C@H]2CC[C@H](Oc3ccccn3)CC2)C1` (mixture of isomers), which Cmax is on record?
Its Cmax is 469 nM.

System: not listed separately
Assay: in vivo
Conditions: Wistar, rat, plasma, po, 3 mg/kg

With `OC1Cc2cc(Cl)ccc2-n2c(nnc2[C@H]2CC[C@H](Oc3ccccn3)CC2)C1` (mixture of isomers) as the molecule, how does the Cmax read?
The Cmax was 403 nM.

System: not listed separately
Assay: in vivo
Conditions: Wistar, rat, brain, po, 3 mg/kg

With `OC1Cc2cc(Cl)ccc2-n2c(nnc2[C@H]2CC[C@H](Oc3ccccn3)CC2)C1` (mixture of isomers) as the molecule, how does the Cmax read?
Its Cmax is 190 nM.

System: not listed separately
Assay: in vivo
Conditions: Wistar, rat, plasma, iv, 3 mg/kg
Remark: another data set of the same source

With `OC1Cc2cc(Cl)ccc2-n2c(nnc2[C@H]2CC[C@H](Oc3ccccn3)CC2)C1` (mixture of isomers) as the molecule, how does the Tmax read?
The Tmax was 0.3 h.

System: not listed separately
Assay: in vivo
Conditions: Wistar, rat, brain, po, 3 mg/kg
Remark: another data set of the same source

For `OC1Cc2cc(Cl)ccc2-n2c(nnc2[C@H]2CC[C@H](Oc3ccccn3)CC2)C1` (mixture of isomers), which Tmax is on record?
Its Tmax is 0.5 h.

System: not listed separately
Assay: in vivo
Conditions: Wistar, rat, brain, po, 3 mg/kg
Remark: another data set of the same source

With `OC1Cc2cc(Cl)ccc2-n2c(nnc2[C@H]2CC[C@H](Oc3ccccn3)CC2)C1` (mixture of isomers) as the molecule, how does the Kp read?
Its Kp is 0.54.

System: not listed separately
Assay: in vitro
Conditions: Wistar, rat, microsomes

Which microsomal CLint at 1 µM does the source give for `Clc1cnc2n1CCCc1nnc([C@H]3CC[C@H](Oc4ccccn4)CC3)n1-2` here?
The microsomal CLint at 1 µM was 12 µL/min/mg.

Which microsomal CLint at 1 µM does the source give for `OC1Cc2cc(Cl)ccc2-n2c(nnc2[C@H]2CC[C@H](Oc3ccccn3)CC2)C1` (mixture of isomers) here?
Its microsomal CLint at 1 µM is 17 µL/min/mg.

Which microsomal CLint at 1 µM does the source give for `CN1Cc2cc(Cl)ccc2-n2c(nnc2[C@H]2CC[C@H](Oc3ccccn3)CC2)C1` [BALOVAPTAN] here?
The microsomal CLint at 1 µM was 17 µL/min/mg.

System: not listed separately
Assay: in vitro
Conditions: NMRI, mouse, microsomes

For `Clc1cnc2n1CCCc1nnc([C@H]3CC[C@H](Oc4ccccn4)CC3)n1-2`, which microsomal CLint at 1 µM is on record?
The microsomal CLint at 1 µM was 15 µL/min/mg.

With `OC1Cc2cc(Cl)ccc2-n2c(nnc2[C@H]2CC[C@H](Oc3ccccn3)CC2)C1` (mixture of isomers) as the molecule, how does the microsomal CLint at 1 µM read?
Its microsomal CLint at 1 µM is 6 µL/min/mg.

With `CN1Cc2cc(Cl)ccc2-n2c(nnc2[C@H]2CC[C@H](Oc3ccccn3)CC2)C1` [BALOVAPTAN] as the molecule, how does the microsomal CLint at 1 µM read?
The microsomal CLint at 1 µM was 22 µL/min/mg.

System: not listed separately
Assay: animal or person
Conditions: Mus musculus, NMRI, po, read-out: INH

Which inhibition in vivo at 10 mg/kg does the source give for `OC1Cc2cc(Cl)ccc2-n2c(nnc2[C@H]2CC[C@H](Oc3ccccn3)CC2)C1` (mixture of isomers) here?
The inhibition in vivo at 10 mg/kg was 91%.

Which inhibition in vivo at 10 mg/kg does the source give for `CN1Cc2cc(Cl)ccc2-n2c(nnc2[C@H]2CC[C@H](Oc3ccccn3)CC2)C1` [BALOVAPTAN] here?
The inhibition in vivo at 10 mg/kg was 69%.

System: not listed separately
Assay: animal or person
Conditions: Mus musculus, NMRI, read-out: INH

With `Clc1cnc2n1CCCc1nnc([C@H]3CC[C@H](Oc4ccccn4)CC3)n1-2` as the molecule, how does the inhibition in vivo at 10 mg/kg read?
Its inhibition in vivo at 10 mg/kg is 32%.

System: not listed separately
Assay: animal or person
Conditions: Mus musculus, NMRI, po, read-out: INH
Remark: another data set of the same source

With `OC1Cc2cc(Cl)ccc2-n2c(nnc2[C@H]2CC[C@H](Oc3ccccn3)CC2)C1` (mixture of isomers) as the molecule, how does the inhibition in vivo at 3 mg/kg read?
The inhibition in vivo at 3 mg/kg was 87%.

With `CN1Cc2cc(Cl)ccc2-n2c(nnc2[C@H]2CC[C@H](Oc3ccccn3)CC2)C1` [BALOVAPTAN] as the molecule, how does the inhibition in vivo at 3 mg/kg read?
Its inhibition in vivo at 3 mg/kg is 7%.
